{
  "source": "ChEMBL document CHEMBL1687752",
  "about": "“Impact of antifungal prophylaxis on colonization and azole susceptibility of Candida species” (2009)",
  "data": [
    {"system": "Nakaseomyces glabratus", "assay": "Antifungal activity against Candida glabrata isolated from HSCT recipients with acute or chronic GVHD receiving posaconazole by broth microdilution method", "assay_type": "functional", "conditions": "not given", "units": {"MIC50": "µg/mL", "MIC90": "µg/mL"}, "values": [
      {"smiles": "CC[C@@H]([C@H](C)O)n1ncn(-c2ccc(N3CCN(c4ccc(OC[C@@H]5CO[C@@](Cn6cncn6)(c6ccc(F)cc6F)C5)cc4)CC3)cc2)c1=O", "note": "[POSACONAZOLE]", "MIC50": 2, "MIC90": 8}
    ]},
    {"system": "Candida albicans", "assay": "Antifungal activity against Candida albicans isolated from HSCT recipient 301 with acute or chronic GVHD mouth receiving antifungal drug after 114 days prophylaxis by broth microdilution method", "assay_type": "functional", "conditions": "not given", "units": {"MIC": "µg/mL"}, "values": [
      {"smiles": "CC[C@@H]([C@H](C)O)n1ncn(-c2ccc(N3CCN(c4ccc(OC[C@@H]5CO[C@@](Cn6cncn6)(c6ccc(F)cc6F)C5)cc4)CC3)cc2)c1=O", "note": "[POSACONAZOLE]", "MIC": 0.03}
    ]},
    {"system": "Saccharomyces cerevisiae", "assay": "Antifungal activity against Saccharomyces cerevisiae isolated from HSCT recipient 513 with acute or chronic GVHD mouth receiving antifungal drug after 112 days prophylaxis by broth microdilution method", "assay_type": "functional", "conditions": "not given", "units": {"MIC": "µg/mL"}, "values": [
      {"smiles": "CC[C@@H]([C@H](C)O)n1ncn(-c2ccc(N3CCN(c4ccc(OC[C@@H]5CO[C@@](Cn6cncn6)(c6ccc(F)cc6F)C5)cc4)CC3)cc2)c1=O", "note": "[POSACONAZOLE]", "MIC": 4}
    ]},
    {"system": "Candida albicans", "assay": "Antifungal activity against Candida albicans isolated from HSCT recipient 042 with acute or chronic GVHD mouth after 112 days prophylaxis by broth microdilution method", "assay_type": "functional", "conditions": "not given", "units": {"MIC": "µg/mL"}, "values": [
      {"smiles": "CC[C@@H]([C@H](C)O)n1ncn(-c2ccc(N3CCN(c4ccc(OC[C@@H]5CO[C@@](Cn6cncn6)(c6ccc(F)cc6F)C5)cc4)CC3)cc2)c1=O", "note": "[POSACONAZOLE]", "MIC": "< 0.015"}
    ]},
    {"system": "Candida albicans", "assay": "Antifungal activity against Candida albicans isolated from HSCT recipient 031 with acute or chronic GVHD mouth receiving antifungal drug after 109 days prophylaxis by broth microdilution method", "assay_type": "functional", "conditions": "not given", "units": {"MIC": "µg/mL"}, "values": [
      {"smiles": "CC[C@@H]([C@H](C)O)n1ncn(-c2ccc(N3CCN(c4ccc(OC[C@@H]5CO[C@@](Cn6cncn6)(c6ccc(F)cc6F)C5)cc4)CC3)cc2)c1=O", "note": "[POSACONAZOLE]", "MIC": "< 0.015"}
    ]},
    {"system": "Candida albicans", "assay": "Antifungal activity against Candida albicans isolated from HSCT recipients with acute or chronic GVHD prior to initiation of fluconazole therapy assessed as maximum MIC by broth microdilution method", "assay_type": "functional", "conditions": "not given", "units": {"MIC": "µg/mL"}, "values": [
      {"smiles": "CC[C@@H]([C@H](C)O)n1ncn(-c2ccc(N3CCN(c4ccc(OC[C@@H]5CO[C@@](Cn6cncn6)(c6ccc(F)cc6F)C5)cc4)CC3)cc2)c1=O", "note": "[POSACONAZOLE]", "MIC": 0.06}
    ]},
    {"system": "Nakaseomyces glabratus", "assay": "Antifungal activity against 23 days cultured Candida glabrata isolated from neutropenic subject with AML or MDS stool receiving antifungal therapy for 25 days after 3 days of prophylaxis by broth microdilution method", "assay_type": "functional", "conditions": "not given", "units": {"MIC": "µg/mL"}, "values": [
      {"smiles": "CC[C@@H]([C@H](C)O)n1ncn(-c2ccc(N3CCN(c4ccc(OC[C@@H]5CO[C@@](Cn6cncn6)(c6ccc(F)cc6F)C5)cc4)CC3)cc2)c1=O", "note": "[POSACONAZOLE]", "MIC": 0.125}
    ]},
    {"system": "Candida albicans", "assay": "Antifungal activity against Candida albicans isolated from neutropenic subjects with AML or MDS prior to initiation of posaconazole therapy by broth microdilution method", "assay_type": "functional", "conditions": "not given", "units": {"MIC50": "µg/mL", "MIC90": "µg/mL"}, "values": [
      {"smiles": "CC[C@@H]([C@H](C)O)n1ncn(-c2ccc(N3CCN(c4ccc(OC[C@@H]5CO[C@@](Cn6cncn6)(c6ccc(F)cc6F)C5)cc4)CC3)cc2)c1=O", "note": "[POSACONAZOLE]", "MIC50": 0.015, "MIC90": 0.015}
    ]},
    {"system": "Pichia kudriavzevii", "assay": "Antifungal activity against Candida krusei isolated from HSCT recipients with acute or chronic GVHD receiving fluconazole by broth microdilution method", "assay_type": "functional", "conditions": "not given", "units": {"MIC50": "µg/mL", "MIC90": "µg/mL"}, "values": [
      {"smiles": "CC[C@@H]([C@H](C)O)n1ncn(-c2ccc(N3CCN(c4ccc(OC[C@@H]5CO[C@@](Cn6cncn6)(c6ccc(F)cc6F)C5)cc4)CC3)cc2)c1=O", "note": "[POSACONAZOLE]", "MIC50": 0.25, "MIC90": 0.5}
    ]},
    {"system": "Candida albicans", "assay": "Antifungal activity against Candida albicans isolated from neutropenic subjects with AML or MDS prior to initiation of fluconazole therapy by broth microdilution method", "assay_type": "functional", "conditions": "not given", "units": {"MIC50": "µg/mL", "MIC90": "µg/mL"}, "values": [
      {"smiles": "CC[C@@H]([C@H](C)O)n1ncn(-c2ccc(N3CCN(c4ccc(OC[C@@H]5CO[C@@](Cn6cncn6)(c6ccc(F)cc6F)C5)cc4)CC3)cc2)c1=O", "note": "[POSACONAZOLE]", "MIC50": 0.015, "MIC90": 0.015}
    ]},
    {"system": "Candida albicans", "assay": "Antifungal activity against Candida albicans isolated from HSCT recipients with acute or chronic GVHD prior to initiation of posaconazole therapy by broth microdilution method", "assay_type": "functional", "conditions": "not given", "units": {"MIC50": "µg/mL", "MIC90": "µg/mL"}, "values": [
      {"smiles": "CC[C@@H]([C@H](C)O)n1ncn(-c2ccc(N3CCN(c4ccc(OC[C@@H]5CO[C@@](Cn6cncn6)(c6ccc(F)cc6F)C5)cc4)CC3)cc2)c1=O", "note": "[POSACONAZOLE]", "MIC50": 0.016, "MIC90": 0.06}
    ]},
    {"system": "Nakaseomyces glabratus", "assay": "Antifungal activity against Candida glabrata isolated from HSCT recipient 491 with acute or chronic GVHD mouth receiving antifungal drug after 112 days prophylaxis by broth microdilution method", "assay_type": "functional", "conditions": "not given", "units": {"MIC": "µg/mL"}, "values": [
      {"smiles": "CC[C@@H]([C@H](C)O)n1ncn(-c2ccc(N3CCN(c4ccc(OC[C@@H]5CO[C@@](Cn6cncn6)(c6ccc(F)cc6F)C5)cc4)CC3)cc2)c1=O", "note": "[POSACONAZOLE]", "MIC": 2}
    ]},
    {"system": "Pichia kudriavzevii", "assay": "Antifungal activity against Candida krusei isolated from HSCT recipients with acute or chronic GVHD receiving fluconazole assessed as maximum MIC by broth microdilution method", "assay_type": "functional", "conditions": "not given", "units": {"MIC": "µg/mL"}, "values": [
      {"smiles": "CC[C@@H]([C@H](C)O)n1ncn(-c2ccc(N3CCN(c4ccc(OC[C@@H]5CO[C@@](Cn6cncn6)(c6ccc(F)cc6F)C5)cc4)CC3)cc2)c1=O", "note": "[POSACONAZOLE]", "MIC": 1}
    ]},
    {"system": "Pichia kudriavzevii", "assay": "Antifungal activity against 1 day cultured Candida krusei isolated from neutropenic subject with AML or MDS pharynx receiving antifungal therapy for 19 days after 6 days of prophylaxis by broth microdilution method", "assay_type": "functional", "conditions": "not given", "units": {"MIC": "µg/mL"}, "values": [
      {"smiles": "CC[C@@H]([C@H](C)O)n1ncn(-c2ccc(N3CCN(c4ccc(OC[C@@H]5CO[C@@](Cn6cncn6)(c6ccc(F)cc6F)C5)cc4)CC3)cc2)c1=O", "note": "[POSACONAZOLE]", "MIC": 0.06}
    ]},
    {"system": "Nakaseomyces glabratus", "assay": "Antifungal activity against Candida glabrata isolated from HSCT recipients with acute or chronic GVHD prior to initiation of posaconazole therapy by broth microdilution method", "assay_type": "functional", "conditions": "not given", "units": {"MIC50": "µg/mL", "MIC90": "µg/mL"}, "values": [
      {"smiles": "CC[C@@H]([C@H](C)O)n1ncn(-c2ccc(N3CCN(c4ccc(OC[C@@H]5CO[C@@](Cn6cncn6)(c6ccc(F)cc6F)C5)cc4)CC3)cc2)c1=O", "note": "[POSACONAZOLE]", "MIC50": 0.5, "MIC90": 4}
    ]},
    {"system": "Candida albicans", "assay": "Antifungal activity against Candida albicans isolated from HSCT recipient 928 with acute or chronic GVHD mouth receiving antifungal drug after 112 days prophylaxis by broth microdilution method", "assay_type": "functional", "conditions": "not given", "units": {"MIC": "µg/mL"}, "values": [
      {"smiles": "CC[C@@H]([C@H](C)O)n1ncn(-c2ccc(N3CCN(c4ccc(OC[C@@H]5CO[C@@](Cn6cncn6)(c6ccc(F)cc6F)C5)cc4)CC3)cc2)c1=O", "note": "[POSACONAZOLE]", "MIC": "> 8"}
    ]},
    {"system": "Nakaseomyces glabratus", "assay": "Antifungal activity against Candida glabrata isolated from neutropenic subjects with AML or MDS receiving posaconazole assessed as maximum MIC by broth microdilution method", "assay_type": "functional", "conditions": "not given", "units": {"MIC": "µg/mL"}, "values": [
      {"smiles": "CC[C@@H]([C@H](C)O)n1ncn(-c2ccc(N3CCN(c4ccc(OC[C@@H]5CO[C@@](Cn6cncn6)(c6ccc(F)cc6F)C5)cc4)CC3)cc2)c1=O", "note": "[POSACONAZOLE]", "MIC": 8}
    ]},
    {"system": "Nakaseomyces glabratus", "assay": "Antifungal activity against Candida glabrata isolated from neutropenic subject 1491 with AML or MDS pharynx receiving antifungal drug after 23 days prophylaxis by broth microdilution method", "assay_type": "functional", "conditions": "552 h", "units": {"MIC": "µg/mL"}, "values": [
      {"smiles": "CC[C@@H]([C@H](C)O)n1ncn(-c2ccc(N3CCN(c4ccc(OC[C@@H]5CO[C@@](Cn6cncn6)(c6ccc(F)cc6F)C5)cc4)CC3)cc2)c1=O", "note": "[POSACONAZOLE]", "MIC": 8}
    ]}
  ]
}
